Assay results: the supplement of paper PMC5908809

What was measured:
[1] = system: NK-YS (IL-2 2.5 ng/mL); assay: percent inhibition of viability; higher = more inhibition; conditions: 72 h
[2] = system: SNK-6 (IL-2 2.5 ng/mL); assay: as above; conditions: 72 h
[3] = system: IMC-1 (IL-2 20 ng/mL); assay: as above; conditions: 72 h
[4] = system: DERL-7 (IL-2 2.5 ng/mL); assay: as above; conditions: 72 h
[5] = system: KHYG-1 (IL-2 2.5 ng/mL); assay: as above; conditions: 72 h
[6] = system: normal primary NK cells, pool 1 (3 donors) (IL-2 2.5 ng/mL); assay: as above; conditions: 72 h
[7] = system: KAI3 (IL-2 2.5 ng/mL); assay: as above; conditions: 72 h
[8] = system: normal primary NK cells, pool 1 (3 donors), resting (IL-2 0 ng/mL); assay: as above; conditions: 72 h
[9] = system: normal primary NK cells, pool 2 (3 donors) (IL-2 2.5 ng/mL); assay: as above; conditions: 72 h
[10] = system: NK-92 (IL-2 2.5 ng/mL); assay: as above; conditions: 72 h
[11] = system: NKL (IL-2 2.5 ng/mL); assay: as above; conditions: 72 h
[12] = system: YT (IL-2 2.5 ng/mL); assay: as above; conditions: 72 h
[13] = system: normal primary NK cells, pool 3 (3 donors) (IL-2 2.5 ng/mL); assay: as above; conditions: 72 h
[14] = system: normal NK cells expanded with K562-aAPC; assay: as above; conditions: 72 h, IL-2 2.5 ng/mL
Experimental: (§1)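 Drug sensitivity and resistance testing on K562-aAPC-expanded normal NK cells: 5 concentrations (10-fold steps over a 10,000-fold range), 72 h at 37 °C, viability by CellTiter-Glo normalised to DMSO and benzethonium chloride controls; DSS from the fitted curve.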

[15] = system: NK-YS (IL-2 2.5 ng/mL); assay: drug sensitivity score (DSS) (DSS units); higher = more sensitive; extreme values may be limits of the assay; conditions: 72 h
[16] = system: SNK-6 (IL-2 2.5 ng/mL); assay: as above; conditions: 72 h
[17] = system: IMC-1 (IL-2 20 ng/mL); assay: as above; conditions: 72 h
[18] = system: DERL-7 (IL-2 2.5 ng/mL); assay: as above; conditions: 72 h
[19] = system: KHYG-1 (IL-2 2.5 ng/mL); assay: as above; conditions: 72 h
[20] = system: normal primary NK cells, pool 1 (3 donors) (IL-2 2.5 ng/mL); assay: as above; conditions: 72 h
[21] = system: KAI3 (IL-2 2.5 ng/mL); assay: as above; conditions: 72 h
[22] = system: normal primary NK cells, pool 1 (3 donors), resting (IL-2 0 ng/mL); assay: as above; conditions: 72 h
[23] = system: normal primary NK cells, pool 2 (3 donors) (IL-2 2.5 ng/mL); assay: as above; conditions: 72 h
[24] = system: NK-92 (IL-2 2.5 ng/mL); assay: as above; conditions: 72 h
[25] = system: NKL (IL-2 2.5 ng/mL); assay: as above; conditions: 72 h
[26] = system: YT (IL-2 2.5 ng/mL); assay: as above; conditions: 72 h
[27] = system: normal primary NK cells, pool 3 (3 donors) (IL-2 2.5 ng/mL); assay: as above; conditions: 72 h
[28] = system: normal NK cells expanded with K562-aAPC; assay: as above; conditions: 72 h; IL-2 2.5 ng/mL
Experimental: as §1

Cc1cc(Nc2cc(N3CCN(C)CC3)nc(Sc3ccc(NC(=O)C4CC4)cc3)n2)n[nH]1 [Tozasertib] (max concentration tested 10000 nM)
percent inhibition of viability [%]
Conditions	1 nM	10 nM	100 nM	1000 nM	10000 nM
[1]	-6.33	0.35	56.9	67.3	60.3
[2]	-3.9	3.63	58.1	74.3	61.7
[3]	-4.29	1.42	24	78	98
[4]	3.54	-3.04	72.5	62	82
[5]	-4.48	2.48	32.5	67.5	85.3
[6]	-7.78	-12.4	-6.71	5.08	43.4
[7]	-4.42	3.12	20.6	48.2	71.8
[8]	2.84	-2.46	-18	-4.6	15.2
[9]	-9.84	-5.4	-5.23	-0.34	41.1
[10]	-7.92	-11.5	9.53	52.9	83.8
[11]	-9.16	-8.33	-3.2	4.79	34.7
[12]	-3.46	-2.16	13.1	25.8	47.4
[13]	-7.32	-4.94	0.04	-0.07	19.2
[14]	-7.6	-9.83	27.1	35.3	38.2

Conditions	drug sensitivity score
[15]	19.2
[16]	20.9
[17]	17.4
[18]	23.6
[19]	16.6
[20]	3.05
[21]	11.6
[22]	0.14
[23]	2.02
[24]	11.4
[25]	2.42
[26]	5.97
[27]	0.53
[28]	9.96

COc1cc2nccc(Oc3ccc(NC(=O)C4(C(=O)Nc5ccc(F)cc5)CC4)cc3)c2cc1OC [Cabozantinib] (max concentration tested 1000 nM)
percent inhibition of viability [%]
Conditions	0.1 nM	1 nM	10 nM	100 nM	1000 nM
[1]	-3.98	-1.22	1.67	-2.46	0.65
[2]	7.18	7.13	10.3	-6.13	-0.11
[3]	-7.19	0.46	1.98	6.03	8.61
[4]	4.09	2.17	6.31	-1.21	8.67
[5]	-1.92	1.46	4.91	3.42	7.82
[6]	-2.72	-8.6	-1.12	-10.1	-9.52
[7]	-1.21	2.25	0.33	-5.2	0.09
[8]	8.87	-5.07	-5.31	-16.9	11.5
[9]	-8.26	3.55	9.65	-7.89	11.1
[10]	1.61	12.2	13.4	2.98	25.1
[11]	-19	-5.16	-4.38	-6.13	19.2
[12]	-1.79	-0.81	0.31	0.38	11.3
[13]	-18.8	-3.79	10.5	-12.7	-3.82
[14]	-0.51	2.22	1.52	13.2	5.74

Conditions	drug sensitivity score
[15]	0
[16]	0
[17]	0
[18]	0
[19]	0
[20]	0
[21]	0
[22]	0.01
[23]	0
[24]	1.73
[25]	0.33
[26]	0.02
[27]	0
[28]	0
